The results in this text go back to patent US10093660B2, “Sulfoximine substituted quinazolines for pharmaceutical compositions” (EVOTEC INTERNATIONAL GMBH, priority 2013, dated 2018).

SMILES strings stand for the structures.

The target in one test is MNK1a (Homo sapiens (Human), UniProt Q9BUB5). Description: MNK1 in vitro kinase assay (Assay 3), Z'-LYTE. Type of test: biochemical. The settings on record: for inhibition at 1 µM: compound concentration of 1 μM, read-out: MNK1 % INH.
A further test deals with MNK2a (Homo sapiens (Human), UniProt Q9HBH9). Description: MNK2a in vitro kinase assay (Assay 2), ADP-Glo. Type of test: biochemical. To be noted: assay 2; read-out: MNK2 IC50. From the text: B. MNK2a In Vitro Kinase Assay (Assay 2)
MNK2a, sequence (Q9HBH9 whole entry): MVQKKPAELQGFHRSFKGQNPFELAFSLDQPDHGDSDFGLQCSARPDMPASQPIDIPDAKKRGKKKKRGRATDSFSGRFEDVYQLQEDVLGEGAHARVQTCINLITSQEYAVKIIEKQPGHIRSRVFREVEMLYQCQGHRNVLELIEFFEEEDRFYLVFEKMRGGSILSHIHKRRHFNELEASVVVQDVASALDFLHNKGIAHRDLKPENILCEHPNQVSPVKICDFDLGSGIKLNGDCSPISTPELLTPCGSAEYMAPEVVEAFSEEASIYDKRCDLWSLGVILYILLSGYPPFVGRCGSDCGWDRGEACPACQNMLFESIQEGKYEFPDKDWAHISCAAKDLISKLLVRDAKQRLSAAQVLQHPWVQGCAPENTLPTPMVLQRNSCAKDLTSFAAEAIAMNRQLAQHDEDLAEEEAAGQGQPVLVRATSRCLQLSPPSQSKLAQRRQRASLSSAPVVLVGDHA
A general note: In ADP-Glo the light output rises with the ADP produced.

MNK1a, sequence (Q9BUB5 other isoform, or with tags, fused parts or gaps): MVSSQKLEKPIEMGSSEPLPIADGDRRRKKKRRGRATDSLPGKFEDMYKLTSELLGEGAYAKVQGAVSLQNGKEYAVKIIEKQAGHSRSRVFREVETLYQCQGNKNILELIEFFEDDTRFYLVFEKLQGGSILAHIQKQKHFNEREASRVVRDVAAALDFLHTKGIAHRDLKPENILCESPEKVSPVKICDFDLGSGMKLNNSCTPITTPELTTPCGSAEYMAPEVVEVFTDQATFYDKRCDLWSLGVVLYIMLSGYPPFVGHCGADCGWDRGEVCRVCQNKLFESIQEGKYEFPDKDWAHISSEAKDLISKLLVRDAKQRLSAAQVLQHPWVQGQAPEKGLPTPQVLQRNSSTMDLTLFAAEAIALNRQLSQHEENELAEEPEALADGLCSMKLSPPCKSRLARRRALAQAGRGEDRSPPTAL

In general, IC50 refers to the point on the concentration scale where inhibition reaches its midpoint. Take `CCS(C)(=O)=Nc1cc(C)c2c(Nc3ccc(F)cc3O[C@H]3COC[C@@H]3O)ncnc2c1` (stereo partly drawn) [Example 2.37]: the inhibition at 1 µM on MNK1a came out at 93%. Besides, the IC50 on MNK2a is 4 nM.
The corresponding values for `Cc1cc(N=S2(=O)CCCCC2)cc2ncnc(Nc3ccc(F)cc3O[C@H]3COC[C@@H]3O)c12` [Example 2.38] are 96% and 3 nM.
The corresponding values for `Cc1cc(N=S(C)(C)=O)cc2ncnc(Nc3ccc(Cl)nc3O[C@H]3COC[C@@H]3O)c12` [Example 2.40] are 96% and 6 nM.
On to `Cc1cc(N=S2(=O)CCCC2)cc2ncnc(Nc3ccc(Cl)nc3O[C@H]3COC[C@@H]3O)c12` [Example 2.42], for which the half-maximal inhibitory concentration (IC50) on MNK1a amounted to 39 nM; on MNK2a it was 4 nM.
On to `Cc1cc(N=S2(=O)CCC2)cc2ncnc(Nc3ccc(Cl)nc3O[C@H]3COC[C@@H]3O)c12` [Example 2.43], for which the inhibition at 1 µM at MNK1a was 100%. Further, at MNK2a, the IC50 turned out to be 3 nM.
For `Cc1cc(N=S(C)(C)=O)cc2ncnc(Nc3ccc(Cl)nc3O[C@@H]3COC[C@H]3O)c12` [Example 2.48], at MNK1a, the inhibition at 1 µM stood at 90%. For the same molecule, the concentration for half-maximal inhibition (IC50) at MNK2a came out at 7 nM.
In the same order, the values of `Cc1cc(N=S(C)(C)=O)cc2ncnc(Nc3cccnc3O[C@@H]3COC[C@H]3O)c12` [Example 2.51] are 81% and 11 nM.
In the same order, the values of `Cc1cc(N=S2(=O)CCC2)cc2ncnc(Nc3ccc(Cl)nc3O[C@@H]3COC[C@H]3O)c12` [Example 2.53] are 83% and 4 nM.
Consider `Cc1cc(N=S2(=O)CCCC2)cc2ncnc(Nc3ccc(Cl)nc3O[C@@H]3COC[C@H]3O)c12` [Example 2.54], for which the figures for the IC50 on MNK1a and on MNK2a were 66 nM and 3 nM, respectively.
On to `CS(C)(=O)=Nc1cc(F)c2c(Nc3ccc(F)cc3O[C@H]3COC[C@@H]3O)ncnc2c1` [Example 2.55], for which the inhibition at 1 µM at MNK1a was determined as 91%. Also, the IC50 on MNK2a turned out to be 3 nM.
In the same order, the values of `Cc1cc(N=S(C)(C)=O)cc2ncnc(Nc3ccc(F)cc3O[C@H]3CN(S(C)(=O)=O)C[C@@H]3O)c12` [Example 2.59] are 99% and 4 nM.
Turning to `Cc1cc(N=S2(=O)CCCC2)cc2ncnc(Nc3ccc(F)cc3O[C@H]3CN(S(C)(=O)=O)C[C@@H]3O)c12` [Example 2.60], the IC50 came out at 37 nM at MNK1a and 3 nM on MNK2a.
With `Cc1cc(N=S(C)(C)=O)cc2ncnc(Nc3ccc(F)cc3O[C@H]3CN(C)C[C@@H]3O)c12` [Example 2.62], the inhibition at 1 µM at MNK1a was 78%. In addition, on MNK2a, the IC50 was found to be 33 nM.
`Cc1cc(N=[S@@](C)(=O)c2ccccc2)cc2ncnc(Nc3ccc(F)cc3O[C@@H]3COC[C@@H]3O)c12` [Example 2.64]: at MNK1a, the inhibition at 1 µM came to 88%. In addition, the IC50 on MNK2a amounted to 9 nM.
As for `Cc1cc(N=S(C)(=O)C(C)C)cc2ncnc(Nc3ccc(F)cc3O[C@H]3COC[C@@H]3O)c12` (stereo partly drawn) [Example 2.74], on MNK1a, the inhibition at 1 µM was 91%. On MNK2a, the IC50 turned out to be 7 nM.
Regarding `Cc1cc(N=S(C)(=O)c2ccccc2)cc2ncnc(Nc3ccc(F)cc3O[C@H]3COC[C@@H]3O)c12` (stereo partly drawn) [Example 2.75], the IC50 against MNK1a worked out at 95 nM; on MNK2a, 8 nM.
The corresponding values for `Cc1cc(N=S(C)(=O)C2CCOCC2)cc2ncnc(Nc3ccc(F)cc3O[C@H]3COC[C@@H]3O)c12` (stereo partly drawn) [Example 2.78] are 107 nM and 11 nM.
`Cc1cc(N=S(C)(=O)C(C)(C)C)cc2ncnc(Nc3ccc(F)cc3O[C@H]3COC[C@@H]3O)c12` (stereo partly drawn) [Example 2.79]: the inhibition at 1 µM on MNK1a was 85%. Further, the half-inhibitory concentration (IC50) at MNK2a is 10 nM.
For the molecule `CC1CCS(=O)(=Nc2cc(F)c3c(Nc4ccc(F)cc4O[C@H]4COC[C@@H]4O)ncnc3c2)C1` (stereo partly drawn) [Example 2.80], the inhibition at 1 µM at MNK1a is 96%. Also, the IC50 at MNK2a turned out to be 4 nM.
The corresponding values for `Cc1cc(N=S(C)(=O)c2cccnc2)cc2ncnc(Nc3ccc(F)cc3O[C@H]3COC[C@@H]3O)c12` (stereo partly drawn) [Example 2.81] are 91% and 14 nM.
Take `Cc1cc(N=S2(=O)CCC(C)C2)cc2ncnc(Nc3ccc(F)cc3O[C@H]3COC[C@@H]3O)c12` (stereo partly drawn) [Example 2.85]: the inhibition at 1 µM on MNK1a was 97%. Also, the IC50 on MNK2a amounted to 3 nM.
As for `O=S1(=Nc2cc(F)c3c(Nc4ccc(F)cc4O[C@H]4COC[C@@H]4O)ncnc3c2)CCC1` [Example 2.92], on MNK1a, inhibition was half-maximal at 44 nM (IC50) and the inhibition at 1 µM amounted to 99%. The IC50 on MNK2a amounted to 2 nM.
As for `CC(=O)N1C[C@@H](O)[C@H](Oc2cc(F)ccc2Nc2ncnc3cc(N=S(C)(C)=O)cc(C)c23)C1` [Example 2.102], the inhibition at 1 µM at MNK1a came out at 74%. Also, the IC50 at MNK2a stood at 31 nM.
As for `Cc1cc(N=S2(=O)CCCC2)cc2ncnc(Nc3cccnc3O[C@@H]3CNC[C@H]3O)c12` [Example 3.1], the inhibition at 1 µM on MNK1a came out at 93%. The IC50 at MNK2a was found to be 29 nM.
In the same order, the values of `Cc1cc(N=S(C)(C)=O)cc2ncnc(Nc3cccnc3O[C@@H]3CNC[C@H]3O)c12` [Example 3.2] are 66% and 47 nM.
The corresponding values for `Cc1cc(N=S2(=O)CCCC2)cc2ncnc(Nc3cccnc3O[C@H]3CNC[C@@H]3O)c12` [Example 3.3] are 88% and 26 nM.
As to `Cc1cc(N=S(C)(C)=O)cc2ncnc(Nc3ccc(F)cc3O[C@@H]3CNC[C@H]3O)c12` [Example 3.4], the inhibition at 1 µM at MNK1a worked out at 82%. For the same molecule, the IC50 on MNK2a is 21 nM.
For `Cc1cc(N=S2(=O)CCCC2)cc2ncnc(Nc3ccc(F)cc3O[C@@H]3CNC[C@H]3O)c12` [Example 3.5], the IC50 turned out to be 97 nM against MNK1a and 6 nM at MNK2a.
For `Cc1cc(N=S(C)(C)=O)cc2ncnc(Nc3ccc(F)cc3O[C@H]3CNC[C@@H]3O)c12` [Example 3.7], the inhibition at 1 µM on MNK1a was found to be 84%. Besides, on MNK2a, the IC50 worked out at 38 nM.
The corresponding values for `CO[C@@H]1CNC[C@H]1Oc1cc(F)ccc1Nc1ncnc2cc(N=S(C)(C)=O)cc(C)c12` [Example 4.1] are 64% and 45 nM.
In the same order, the values of `CO[C@@H]1CNC[C@H]1Oc1cc(F)ccc1Nc1ncnc2cc(N=S3(=O)CCCC3)cc(C)c12` [Example 4.2] are 87% and 8 nM.
The corresponding values for `CCN1C[C@@H](OC)[C@H](Oc2cc(F)ccc2Nc2ncnc3cc(N=S4(=O)CCCC4)cc(C)c23)C1` [Example 4.3] are 54% and 40 nM.
For the molecule `CO[C@@H]1CNC[C@H]1Oc1ncccc1Nc1ncnc2cc(N=S3(=O)CCCC3)cc(C)c12` [Example 4.4], the inhibition at 1 µM on MNK1a stood at 93%. In addition, the IC50 on MNK2a was found to be 11 nM.
In the same order, the values of `CO[C@@H]1CNC[C@H]1Oc1ncccc1Nc1ncnc2cc(N=S(C)(C)=O)cc(C)c12` [Example 4.5] are 63% and 33 nM.
For `CO[C@@H]1CN(CC(F)F)C[C@H]1Oc1cc(F)ccc1Nc1ncnc2cc(N=S3(=O)CCCC3)cc(C)c12` [Example 5.1], the IC50 against MNK1a amounted to 373 nM; on MNK2a, 16 nM.
With `CO[C@@H]1CN(CC(F)F)C[C@H]1Oc1ncccc1Nc1ncnc2cc(N=S(C)(C)=O)cc(C)c12` [Example 5.2], the inhibition at 1 µM at MNK1a amounted to 56%. Also, the IC50 at MNK2a worked out at 72 nM.
For `CO[C@@H]1CN(CCF)C[C@H]1Oc1ncccc1Nc1ncnc2cc(N=S(C)(C)=O)cc(C)c12` [Example 5.3], the inhibition at 1 µM at MNK1a came to 31%. In addition, at MNK2a, the IC50 turned out to be 109 nM.
